# What was measured:
# [1] = test system: amyloid plaques in cortex and hippocampus of 5xFAD mice; experiment: Immunohistochemical assay of amyloid plaques (6E10 antibody, Thioflavin S); type: in vivo, mouse; settings: 10 mg/kg, FIGS. 24 and 25
# Description: (§1) 5xFAD mice were purchased from Jackson Lab and bred in and in through mating with C57B16/SJL F1 females, based on the information provided by the supplier. Through genotyping, the mice were divided into groups of 7-9 members, including normal groups (WT) and genetically modified groups (5xFAD): 4.5-month-old 5xFAD mice (Tg) and age-matched controls (WT). To the WT or Tg groups, a vehicle or SPA1413 was orally administered at a dose of 10 mg/kg once a day for 1 month. To test whether SPA1413 has a therapeutic effect on Alzheimer’s disease, the mice in 5 groups (WT-vehicle; WT-SPA1413 5xFAD-vehicle; 5xFAD-SPA1413; and 5xFAD-donepezil) were evaluated for cognitive ability.
# After the animal behavior experiments, the brain tissues of the experimental animals were recovered, sectioned, and then stained with Thioflavin S for immunostaining chemistry using the 6E10 antibody.
# Immunohistochemical staining is a technique for detecting specific proteins within tissues by staining the same. […] The stained tissues were observed through a fluorescence microscope, and the images are depicted in FIG. 23.
# The quantitative analysis results of the images of the tissues stained with the 6E10 antibody and Thioflavin S are presented in FIGS. 24 and 25. Five experimental animals were selected from each group and analyzed. […]
# 5xFAD mice = experiment: Y-maze test; type: in vivo, mouse; settings: 10 mg/kg orally once a day for 1 month, vs 5xFAD-saline group, FIG. 21
# Description: The experiment was conducted with 5X-FAD transgenic mice having Alzheimer’s disease introduced therein. The 5X FAD mouse is an animal model of Alzheimer’s disease with all the human AD-linked mutations: Swedish (K670N/ […]), Florida (1716V) and London (V7171) in APP (695) and M146L in Presenilin 1
# as §1
# Memory impairment was evaluated using the Y-shaped maze test. For the Y-shaped maze test, a Y-shaped arm was installed in a water tank. […] After a random number was assigned to each arm, the arm number in which the animal entered was recorded. Memory was assessed by the animal’s ability to remember the route it had taken and to try to navigate the new route.
# [2] = test system: oligomeric Aβ proteins in cortex and hippocampus of 5xFAD mice; experiment: Western blotting of oligomeric Aβ proteins in brain tissue; type: in vivo, mouse; settings: 10 mg/kg, FIG. 28
# Description: as §1
# After the animal behavior experiments, the brain tissues of the experimental animals were recovered, the brain tissues in the cortex and hippocampus regions of one hemisphere were separated, frozen, and stored until use. The tissues were thawed on the test day and treated with a lysis solvent, followed by protein isolation and quantitation. […]
# The images of the western blots analyzed for oligomeric Aβ proteins (60-70 kDa) in the cortex and hippocampus of 5xFAD-vehicle and 5xFAD-SPA1413 group animals are presented in FIG. 28, and the band intensity was analyzed and quantified using the image j program.
# HEK293 cells = experiment: MTT cytotoxicity in HEK293 cells; type: cell-based; settings: HEK293 cells, 1, 5 and 10 µM, 24 hours; FIG. 16
# Description: (§2) HEK293 cells and the HEK293 cells overexpressing the dementia gene PSEN1 were seeded at a density of 2x10^5 cells/well into 96-well plates containing a DMEM medium and stabilized overnight, following by treating the cells with various concentrations (1, 5, and 10 µM) of the sample (SPA1413) for 24 hours. After removal of the culture medium, a 0.5 mg/ml MTT solution was added in an amount of 100 µl to each well and incubated at 37° C. for at least one hour in an incubator. The MTT was removed and 200 µl of DMSO was added to each well to dissolve the formazan. Absorbance was read at 540 nm on an ELISA reader to determine whether or the sample was toxic to the cells.
# [3] = test system: HEK293 cells overexpressing the dementia gene PSEN1; experiment: MTT cytotoxicity in HEK293 cells overexpressing PSEN1; type: cell-based; settings: PSEN1 gene-overexpressing HEK293 cell line, 1, 5 and 10 µM, 24 hours, compared to the normal cells; FIG. 16
# Description: as §2
# [4] = test system: primary microglial cells treated with beta amyloid oligomer (AB1-40); experiment: Cell viability of primary microglia treated with beta amyloid oligomer; type: cell-based, ICR mice; settings: 5 µM for 1 hour, then AB1-40 10 µM 24 hours; FIG. 15
# Description: Mouse-derived microglia (BV2 cells) purchased from the Korean Cell Line Bank were seeded at a density of 4x10^5 cells/well into 96-well plates, each well containing DMEM (Dulbecco’s Modified Eagle’s Media) supplemented with 10% FBS and 1% antibiotics, and stabilized by incubation for 24 hours. Thereafter, the cells were treated for 24 hours with various concentrations (0.5, 1, and 5 µM) of daidzein, o-desmethylangolensin (O-DMA), S-equal, SPA1413, and SPA1426. After removal of the medium, the cells were treated 0.5 mg/ml 3-(4,5-dimethylthiazol-2-yl)-2,5-diphenyltetrazolium bromide (MTT) solution 1 hour. The reduced formazan was dissolved in 150 µl of dimethyl sulfoxide (DMSO) and absorbance was read at 570 nm in a microspectrophotometer to determine cell viability. Cell viability of the cells treated with each sample was determined relative to that of the untreated normal control (Control), which was set to be 100%, and the results are depicted in FIGS. 3 and 4 (upper).
# Primary microglial cells isolated from the brain of 1-year-old ICR mice were seeded at a density of 2x10^5 cells/well into 96-well plates and stabilized for 24 hours. Thereafter, the cells were treated with 5 µM of daidzein, S-equal, SPA1413, or SPA1426 for 1 hour and then with beta amyloid oligomer (AB1-40, 10 µM) for 24 hours at 37° C. Cell viability was assayed in the same manner as in Experimental Example 2.
# [5] = test system: PSEN1 gene expression in PSEN1-overexpressed HEK293 cells; experiment: Inhibition of dementia gene PSEN1 expression (qRT-PCR); type: cell-based; settings: 0.1 and 1 µM, 24 hours, FIG. 17
# Description: HEK293 cells and PSEN1-overexpressed HEK293 cells were seeded at a density of 1x10^6 cells/well into 6-well plates containing a DMEM medium and stabilized overnight, following by treating the cells with or without various concentrations (0.1 and 1 µM) of the sample (SPA1413) for 24 hours. Thereafter, RNA was extracted from the cells, using TRIzol reagent. Reverse transcription was performed using the GoScript™ reverse transcription system according to the manufacturer’s instructions. A qRT-PCR reaction was performed in a volume of 20 µl using the standard SYBR Green PCR kit and Roche Light® Instrument according to the standard protocol. Relative gene expression levels were calculated by the 2^-ΔΔCt method.
structure (smiles),measurement,setting,value
"Oc1ccc(C2=Cc3ccc(O)cc3OC2)cc1 [SPA1413, 3-(4-Hydroxyphenyl)-2H-chromen-7-ol]",amyloid plaques in the cortex and hippocampus,[1],significantly reduced
same,total arm entries,5xFAD mice,no significant difference
same,level of oligomeric Aβ proteins (60-70 kDa) in the cortex and hippocampus,[2],significantly reduce
same,cell viability (MTT),HEK293 cells,the same as or almost similar to the normal control group
same,cell viability (MTT),[3],increase in cell viability
same,cell viability after beta amyloid oligomer treatment,[4],significantly increased in cell viability
same,PSEN1 gene expression,[5],inhibited the upregulated expression of PSEN1 gene

# From US20230330059A1, “3-PHENYL-2H-CHROMENE DERIVATIVE AND PHARMACEUTICAL COMPOSITION FOR PREVENTING OR TREATING ALZHEIMER'S, CONTAINING SAME” (NEUROBIONET, INC., priority 2020, published 2023)
